Results on 40 compounds are retold here after US20070082883A1, “HIV protease inhibitors” (THE BOARD OF TRUSTEES OF THE UNIVERSITY OF ILLINOIS, priority 2002, published 2007).

SMILES strings stand for the structures.

This assay deals with T1, HIV-1 protease (Human immunodeficiency virus type 1 group M subtype B, UniProt P04585).
T1 construct: made in house; host or cells: E. coli BL21 (dE3)pLysS, pET30a vector
The assay can be described thus: HIV-1 Protease Inhibition Assay. Particulars: fluorogenic substrate assay. In kind it is biochemical. The source says:
Assays of the dose-response effect of inhibitor compounds can be described as a curve expressing a degree of inhibition as a function of concentration. The curve theoretically passes through a point at which the concentration is sufficient to reduce activity of the HIV protease enzyme to a level that is 50% that of the difference between minimal and maximal enzyme activity in the assay.
HIV-1 Protease Inhibition Assay
The HIV-1 protease gene was subcloned into the pET30a vector (Novagen) and then transformed into BL21 (dE3)pLysS cells for protein expression. Protein expression and purification were followed according to Tang's procedure (Hong et al., Biochemistry, 1996, 35, 10627-10633). […] The inclusion body containing some bacterial proteins was thoroughly washed by using TRITON X-100, solubilized in […] and passed through the Q-sepharose column to remove the bacterial proteins which interfered with subsequent refolding steps. HIV-1 protease was refolded from the urea to an active form by dialysis. As a final step, gel filtration chromatography was used to remove impurities after refolding. Activities of purified HIV-1 protease were examined using a fluorogenic substrate, 2-aminobenzoyl-Thr-Ile-Nle-Phe(pNO2)-Gln-Arg-NH2 (Novabiochem). […] In the condition of So<<Km, v=Eo(kcat/Km)So, where Eo is the total enzyme concentration, and So is the substrate concentrate. […] Assays are carried out as described by Toth and Marshall (Toth et al., Int. J. Pept. Protein Res., 1990, 36, 544-50).

For `Cc1ccc(S(=O)(=O)N(CCN(C)C)C[C@@H](O)[C@H](Cc2ccccc2)NC(=O)O[C@H]2C[C@H]3CCO[C@H]3C2)cc1CO` [Compound 159], the IC50 (as a rule, the concentration that gives 50% inhibition) stood at 204 nM and the affinity, expressed as Ki, was 63 nM. Take `Cc1ccc(S(=O)(=O)N(CCN(C)C)C[C@@H](O)[C@H](Cc2ccccc2)NC(=O)O[C@@H]2CO[C@@H]3OCCC[C@@H]32)cc1CO` [Compound 160]: the 50% inhibitory concentration (IC50) is 231 nM and the Ki (in general, a dissociation constant, usually derived from enzyme kinetics or from competition with a known ligand) is 72 nM. On the same counts, the results for `Cc1ccc(S(=O)(=O)N(C[C@@H](O)[C@H](Cc2ccccc2)NC(=O)OC2CO[C@H]3OCCC23)C2CCOC2)cc1CO` (stereo partly shown) [Compound 161] are 2 nM and 1.6 nM.

As to `Cc1ccc(S(=O)(=O)N(C[C@@H](O)[C@H](Cc2ccccc2)NC(=O)OC2CC3CCO[C@@H]3C2)C2CCOC2)cc1CO` (stereo partly shown) [Compound 162], the IC50 is 4.1 nM and the Ki came out at 1.3 nM. On the same counts, the results for `CC(C)CN(C[C@@H](O)[C@H](Cc1ccccc1)NC(=O)OC(C)(C)C)S(=O)(=O)c1cncc([N+](=O)[O-])c1` [Compound 163] are 115 nM and 36 nM. On to `CC(C)CN(C[C@@H](O)[C@H](Cc1ccccc1)NC(=O)OC(C)(C)C)S(=O)(=O)c1cncc(N)c1` [Compound 164], for which it took 33 nM to reach half-maximal inhibition (IC50) and the affinity corresponds to a Ki of 10 nM. Compound `CC(C)CN(C[C@@H](O)[C@H](Cc1ccccc1)NC(=O)OC1CO[C@H]2OCCC12)S(=O)(=O)c1cncc([N+](=O)[O-])c1` (stereo partly shown) [Compound 165] had an IC50 of 3.5 nM and a Ki of 1 nM. For `CC(C)CN(C[C@@H](O)[C@H](Cc1ccccc1)NC(=O)OC1CO[C@H]2OCCC12)S(=O)(=O)c1cncc(N)c1` (stereo partly shown) [Compound 166] the same measures were 0.91 nM and 0.28 nM. On the same counts, the results for `CC(C)CN(C[C@@H](O)[C@H](Cc1ccccc1)NC(=O)OC1CC2CCO[C@@H]2C1)S(=O)(=O)c1cncc([N+](=O)[O-])c1` (stereo partly shown) [Compound 167] are 4.5 nM and 1.4 nM. For `CC(C)CN(C[C@@H](O)[C@H](Cc1ccccc1)NC(=O)OC1CC2CCO[C@@H]2C1)S(=O)(=O)c1cncc(N)c1` (stereo partly shown) [Compound 168] the same measures were 2.5 nM and 0.8 nM. For `CC(C)CN(C[C@@H](O)[C@H](Cc1ccccc1)NC(=O)O[C@H]1CCOC1)S(=O)(=O)c1cncc([N+](=O)[O-])c1` [Compound 169], the half-inhibitory concentration (IC50) came to 7.1 nM and the affinity, expressed as Ki, was 22 nM. On the same counts, the results for `CC(C)CN(C[C@@H](O)[C@H](Cc1ccccc1)NC(=O)O[C@H]1CCOC1)S(=O)(=O)c1cncc(N)c1` [Compound 170] are 2.4 nM and 0.74 nM.

Turning to `CC(C)CN(C[C@@H](O)[C@H](Cc1ccccc1)NC(=O)O[C@H]1C[C@H]2CCO[C@H]2C1)S(=O)(=O)c1cncc([N+](=O)[O-])c1` [Compound 171], half-maximal inhibition (IC50) required 14 nM and the Ki was 4.3 nM.

The compound `CC(C)CN(C[C@@H](O)[C@H](Cc1ccccc1)NC(=O)O[C@H]1C[C@H]2CCO[C@H]2C1)S(=O)(=O)c1cncc(N)c1` [Compound 172] gave an IC50 of 5.1 nM and a Ki of 1.6 nM. `CC(C)CN(C[C@@H](O)[C@H](Cc1ccccc1)NC(=O)OC1CC2CCO[C@@H]2C1)S(=O)(=O)c1ccc(F)c(N)c1` (stereo partly shown) [Compound 179]: the IC50 worked out at 6.4 nM and the Ki is 2 nM. For `CN(C)CCN(C[C@@H](O)[C@H](Cc1ccccc1)NC(=O)OC1CC2CCO[C@@H]2C1)S(=O)(=O)c1ccc(F)c(N)c1` (stereo partly shown) [Compound 180] the same measures were 1500 nM and 472 nM. On the same counts, the results for `CC(C)CN(C[C@@H](O)[C@H](Cc1ccccc1)NC(=O)O[C@H]1CCOC1)S(=O)(=O)c1ccc(F)c([N+](=O)[O-])c1` [Compound 181] are 145 nM and 45 nM. `CC(C)CN(C[C@@H](O)[C@H](Cc1ccccc1)NC(=O)O[C@H]1CCOC1)S(=O)(=O)c1ccc(F)c(N)c1` [Compound 182] yielded a 50% inhibitory concentration (IC50) of 4.6 nM and a Ki of 1.4 nM. On the same counts, the results for `Cc1c(O)cccc1C(=O)N[C@@H](Cc1ccccc1)[C@H](O)CN(CC(C)C)S(=O)(=O)c1ccc(F)c(N)c1` [Compound 183] are 179 nM and 56 nM. On the same counts, the results for `CC(C)CN(C[C@@H](O)[C@H](Cc1ccccc1)NC(=O)O[C@@H]1CC2CCO[C@@H]2C1)NS(=O)(=O)c1ccc(F)c([N+](=O)[O-])c1` (stereo partly shown) [Compound 184] are 1200 nM and 351 nM.

The compound `COc1ccc(S(=O)(=O)NN(CC(C)C)C[C@@H](O)[C@H](Cc2ccccc2)NC(=O)O[C@H]2CO[C@H]3OCCC32)cc1` (stereo partly shown) [Compound 185] had a half-maximal inhibitory concentration (IC50) of 312 nM and a Ki of 97 nM. The compound `COc1ccc(S(=O)(=O)NN(CC(C)C)C[C@@H](O)[C@H](Cc2ccccc2)NC(=O)O[C@@H]2CC3CCO[C@@H]3C2)cc1` (stereo partly shown) [Compound 186] gave an IC50 of 10 nM and a Ki of 3.2 nM.

For the compound `COc1ccc(S(=O)(=O)N(C[C@@H](O)[C@H](Cc2ccccc2)NC(=O)OC(C)(C)C)NC(=O)OC(C)(C)C)cc1` [Compound 187], the IC50 came out at 534 nM and the Ki amounted to 166 nM. For `COc1ccc(S(=O)(=O)N(C[C@@H](O)[C@H](Cc2ccccc2)NC(=O)O[C@H]2CO[C@H]3OCCC32)NC(=O)OC(C)(C)C)cc1` (stereo partly shown) [Compound 188] the same measures were 3.9 nM and 1.2 nM. For `COc1ccc(S(=O)(=O)N(N)C[C@@H](O)[C@H](Cc2ccccc2)NC(=O)O[C@H]2CO[C@H]3OCCC32)cc1` (stereo partly shown) [Compound 189] the same measures were 55 nM and 17 nM. On the same counts, the results for `CC(C)(C)OC(=O)NN(C[C@@H](O)[C@H](Cc1ccccc1)NC(=O)O[C@H]1CO[C@H]2OCCC21)S(=O)(=O)c1ccc(F)c(N)c1` (stereo partly shown) [Compound 190] are 3.5 nM and 1.1 nM. In turn, `CC(C)(C)OC(=O)NN(C[C@@H](O)[C@H](Cc1ccccc1)NC(=O)O[C@@H]1CC2CCO[C@@H]2C1)S(=O)(=O)c1ccc(F)c(N)c1` (stereo partly shown) [Compound 191] returned an IC50 of 9.6 nM and a Ki of 3 nM. For `COc1ccc(S(=O)(=O)N(C[C@@H](O)[C@H](Cc2ccccc2)NC(=O)O[C@H]2CO[C@H]3OCCC32)C2CN(C(=O)OC(C)(C)C)C2)cc1` (stereo partly shown) [Compound 200] the same measures were 7.6 nM and 2.3 nM.

For `COc1ccc(S(=O)(=O)N(C[C@@H](O)[C@H](Cc2ccccc2)NC(=O)O[C@H]2CO[C@H]3OCCC32)C2CN(C)C2)cc1` (stereo partly shown) [Compound 201], half-maximal inhibition (IC50) required 5.6 nM and the affinity, expressed as Ki, was 1.7 nM. On the same counts, the results for `COc1ccc(S(=O)(=O)N(C[C@@H](O)[C@H](Cc2ccccc2)NC(=O)O[C@@H]2CO[C@@H]3OCC[C@@H]32)C2CN(C)C2)cc1` [Compound 202] are 31 nM and 9.7 nM. For `COc1ccc(S(=O)(=O)N(C[C@@H](O)[C@H](Cc2ccccc2)NC(=O)O[C@@H]2CC3CCO[C@@H]3C2)C2CN(C)C2)cc1` (stereo partly shown) [Compound 204] the same measures were 5.6 nM and 1.7 nM. For `COc1ccc(S(=O)(=O)N(C[C@@H](O)[C@H](Cc2ccccc2)NC(=O)O[C@H]2C[C@H]3CCO[C@H]3C2)C2CN(C)C2)cc1` [Compound 205] the same measures were 87 nM and 27 nM.

Compound `COc1ccc(S(=O)(=O)N(C[C@@H](O)[C@H](Cc2ccccc2)NC(=O)O[C@H]2CCOC2)C2CN(C)C2)cc1` [Compound 206] gave an IC50 of 109 nM and a Ki of 34 nM. Turning to `COc1ccc(S(=O)(=O)N(CC(C)C)C[C@@H](O)[C@H](Cc2ccc(OCc3ccccc3)cc2)NC(=O)OC(C)(C)C)cc1` [Compound 207], the IC50 came out at 96 nM and the Ki came to 30 nM. The compound `COc1ccc(S(=O)(=O)N(CC(=O)[C@H](Cc2ccc(OCc3ccccc3)cc2)NC(=O)OC(C)(C)C)CC(C)C)cc1` [Compound 208] displayed an IC50 greater than 2300 nM. Turning to `COc1ccc(S(=O)(=O)N(CC(C)C)C[C@H](O)[C@H](Cc2ccc(OCc3ccccc3)cc2)NC(=O)OC(C)(C)C)cc1` [Compound 209], the IC50 was 30 nM and the affinity corresponds to a Ki of 9.3 nM. On the same counts, the results for `COc1ccc(S(=O)(=O)N(CC(C)C)CC(O)C(Cc2ccc(OCc3ccccc3)cc2)NC(=O)OC(C)(C)C)cc1` (stereo not shown) [Compound 210] are 13 nM and 4.1 nM. The compound `COc1ccc(S(=O)(=O)N(CC(C)C)C[C@H](O)[C@H](Cc2ccc(OCc3ccccc3)cc2)NC(=O)O[C@H]2CO[C@H]3OCCC32)cc1` (stereo partly shown) [Compound 211] returned a half-maximal inhibitory concentration (IC50) of 90 nM and a Ki of 28 nM.

For the compound `COc1ccc(S(=O)(=O)N(CC(C)C)C[C@@H](O)[C@H](Cc2ccc(OCc3ccccc3)cc2)NC(=O)O[C@H]2CO[C@H]3OCCC32)cc1` (stereo partly shown) [Compound 212], the IC50 came to 30 nM and the Ki was 9.3 nM. For `COc1ccc(S(=O)(=O)N(CC(C)C)C[C@@H](O)[C@H](Cc2ccc(O)cc2)NC(=O)O[C@H]2CO[C@H]3OCCC32)cc1` (stereo partly shown) [Compound 213] the same measures were 4.1 nM and 1.3 nM.
